According to US20060128721A1, “Novel formulations of opioid-based treatments of pain comprising substituted 1,4-di-piperidin-4-yl-piperazine derivatives” (priority 2003, published 2006):
Like-named read-outs stand apart in the source and are kept apart here. Each block holds one molecule with its values, some of them ahead of it.

Experiments:
[1] = test system: loperamide-induced retching; experiment: Antiemetic effects: loperamide-induced retching in ferrets; type: in vivo; settings: for Ratio p.o./s.c. of ED50 for blockade of retching: p.o. (−2 h) over s.c. (−1 h)
Procedure: The antiemetic effects have been determined using the loperamide-induced retching model (i.e. retching induced by an opioid) in ferrets. To exclude species differences in antiemetic activiey, both compounds have also been tested for antiemetic activity against apomorphine in dogs.
Antagonism of emesis induced by the peripherally selective opioid loperamide (0.31 mg/kg, s.c.) was studied over a 1 h-period starting immediately after the emetic challenge in ferrets pretreated with test compound or solvent. In control animals pre-treated with solvent, loperamide induced pronounced retching (mean±SD: 95±39 counts; n=[…]) and, to a lesser extent, vomiting (5±4).

[2] = molecular target: T1, cloned human h-NK1 receptors expressed in CHO cells (Homo sapiens, UniProt P25103); experiment: Binding experiment for h-NK1 receptors ([3H]-Substance P displacement); settings: read-out: h-NK1 pIC50 (converted)
T1 construct: expressed in transfected cells; host or cells: CHO cells
T1 sequence (P25103 whole entry): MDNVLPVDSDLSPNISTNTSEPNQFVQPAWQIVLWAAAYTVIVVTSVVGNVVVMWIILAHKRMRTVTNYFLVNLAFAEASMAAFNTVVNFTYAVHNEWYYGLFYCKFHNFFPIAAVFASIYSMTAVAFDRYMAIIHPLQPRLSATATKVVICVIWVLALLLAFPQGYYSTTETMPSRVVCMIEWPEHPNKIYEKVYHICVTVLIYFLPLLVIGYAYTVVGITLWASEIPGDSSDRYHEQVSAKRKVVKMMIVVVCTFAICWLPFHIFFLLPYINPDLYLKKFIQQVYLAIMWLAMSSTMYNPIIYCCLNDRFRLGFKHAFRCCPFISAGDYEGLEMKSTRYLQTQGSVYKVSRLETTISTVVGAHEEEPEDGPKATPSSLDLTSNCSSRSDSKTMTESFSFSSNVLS
Procedure: (§1) The compounds according to the invention were investigated for interaction with various neurotransmitter receptors, ion channels and transporter binding sites using the radioligand binding technique. Membranes from tissue homogenates or from cells, expressing the receptor or transporter of interests, were incubated with a radioactively labelled substance ([^3H]- or [^125I] ligand) to label a particular receptor. […] Following incubation, labelled membranes were harvested and rinsed with excessive cold buffer to remove non-bound radioactivity by rapid filtration under suction. Membrane bound radioactivity was counted in a scintillation counter and results were expressed in counts per minute (cpm).
(§2) The compounds were dissolved in DMSO and tested at 10 concentrations ranging from 10^−10 to 10^−5 M.
(§3) The ability of the compounds according to the invention to displace [^3H]-Substance P from cloned human h-NK1 receptors expressed in CHO cells, to displace [^3H]-SR-48968 from cloned human h-NK2 receptors expressed in Sf9 cells, and to displace [^3H]-SR-142801 from cloned human h-NK3 receptors expressed in CHO cells was evaluated.

[3] = molecular target: T2, cloned human h-NK2 receptors expressed in Sf9 cells (Homo sapiens, UniProt P21452); experiment: Binding experiment for h-NK2 receptors ([3H]-SR-48968 displacement); settings: [3H]-SR-48968, Sf9 cells; read-out: h-NK2 pIC50 (converted)
T2 construct: expressed in transfected cells; host or cells: Sf9 cells
T2 sequence (P21452 1-398): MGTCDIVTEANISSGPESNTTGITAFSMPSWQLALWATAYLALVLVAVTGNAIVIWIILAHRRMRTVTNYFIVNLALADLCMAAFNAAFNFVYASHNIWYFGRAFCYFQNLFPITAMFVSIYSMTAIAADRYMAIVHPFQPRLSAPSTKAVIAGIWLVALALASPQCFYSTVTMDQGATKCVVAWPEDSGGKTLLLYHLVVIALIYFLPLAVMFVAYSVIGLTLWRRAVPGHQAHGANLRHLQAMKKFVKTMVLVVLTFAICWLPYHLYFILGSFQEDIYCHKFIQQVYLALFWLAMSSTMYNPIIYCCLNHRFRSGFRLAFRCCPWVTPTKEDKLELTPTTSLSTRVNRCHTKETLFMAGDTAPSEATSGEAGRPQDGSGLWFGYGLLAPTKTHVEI
Procedure: as §1, §2, §3

[4] = ferrets, loperamide 0.31 mg/kg s.c., 2 h after oral administration, blockade = 0 retches
[5] = ferrets, loperamide 0.31 mg/kg s.c., 1 h after subcutaneous administration, blockade = 0 retches
[6] = read-out: ED50 (95% confidence limits) for blockade of loperamide-induced retching, p.o. route (−2 h), ferrets, loperamide 0.31 mg/kg s.c., 2 h after oral administration, blockade = 0 retches
[7] = sc, read-out: ED50 for blockade of loperamide-induced retching, ferrets, loperamide 0.31 mg/kg s.c., 1 h after subcutaneous administration, blockade = 0 retches

Structure (SMILES): CN(Cc1ccccc1)C(=O)C(Cc1ccc2ccccc2c1)NC(=O)[C@@H]1CCCN1C(=O)Nc1ccccc1[N+](=O)[O-] (stereo partly drawn) [SDZ-NKT-343, 2-Nitrophenylcarbamoyl-(S)-prolyl-3-(2-naphthyl)alanyl-N-benzyl-N-methylamide, reference compound]
ED50 (95% confidence limits) for blockade of loperamide-induced retching, p.o. route (−2 h) [1, 4]: >2.5 mg/kg

Structure (SMILES): C[C@@H](O[C@H]1OCCN(Cc2n[nH]c(=O)[nH]2)[C@H]1c1ccc(F)cc1)c1cc(C(F)(F)F)cc(C(F)(F)F)c1 [Aprepitant/MK-869, Aprepitant, reference compound]
ED50 for blockade of loperamide-induced retching, s.c. route (−1 h) [1, 5]: >1.25 mg/kg | ED50 (95% confidence limits) for blockade of loperamide-induced retching, p.o. route (−2 h) [1, 4]: 3.1 (1.9-5.0) mg/kg | Ratio p.o./s.c. of ED50 for blockade of retching ([1]; ferrets): <2.5

Structure (SMILES): O=C(c1cc(C(F)(F)F)cc(C(F)(F)F)c1)N1CC[C@H](N2CCN(C3CCN(C(=O)C4(c5ccccc5)CC4)CC3)CC2)C[C@H]1Cc1ccccc1 [Compound 108]
IC50 [2]: 1.58 nM

Structure (SMILES): C[C@@H](O[C@H]1OCCN(Cc2n[nH]nc2CN(C)C)[C@H]1c1ccc(F)cc1)c1cc(C(F)(F)F)cc(C(F)(F)F)c1 [Compound L-760735, reference compound]
ED50 for blockade of loperamide-induced retching, s.c. route (−1 h) [1, 5]: 0.31 mg/kg

Structure (SMILES): Cc1ccc(O)c(CN2CCC(N3CCN(C4CCN(C(=O)c5cc(C(F)(F)F)cc(C(F)(F)F)c5)C(Cc5ccccc5)C4)CC3)CC2)n1 (stereo not shown) [Compound 8]
IC50 [2]: 0.631 nM

Structure (SMILES): O=C(C(c1ccccc1)N1CCC(N2CCN(C3CCN(C(=O)c4cc(C(F)(F)F)cc(C(F)(F)F)c4)C(Cc4ccccc4)C3)CC2)CC1)N1CCOCC1 (stereo not shown) [Compound 6]
IC50 [2]: 1 nM

Structure (SMILES): O=C(/C=C/c1cccnc1)N1CCC(N2CCN([C@H]3CCN(C(=O)c4cc(C(F)(F)F)cc(C(F)(F)F)c4)[C@H](Cc4ccccc4)C3)CC2)CC1 [Compound 110]
IC50 [2]: 0.1 nM

Structure (SMILES): O=C(c1cccc(N2CCCC2)c1)N1CCC(N2CCN([C@H]3CCN(C(=O)c4cc(C(F)(F)F)cc(C(F)(F)F)c4)[C@H](Cc4ccccc4)C3)CC2)CC1 [Compound 42]
IC50 [2]: 2.51 nM

Structure (SMILES): COc1ccc(-n2cnnn2)cc1CN[C@H]1CCCN[C@H]1c1ccccc1 [GR-203040, (2S,3S)-(2-methoxy-5-tetrazol-1-ylbenzyl)(2-phenylpiperidin-3-yl)amine, reference compound]
Ratio p.o./s.c. of ED50 for blockade of retching ([1]; ferrets): 3.1 | ED50 [1, 6]: 0.2 mg/kg | ED50 [1, 7]: 0.064 mg/kg

Structure (SMILES): O=C(c1cccc(C(=O)N2CCC(N3CCN([C@H]4CCN(C(=O)c5cc(C(F)(F)F)cc(C(F)(F)F)c5)[C@H](Cc5ccccc5)C4)CC3)CC2)c1)N1CCCC1 [Compound 45]
IC50 [2]: 0.316 nM

Structure (SMILES): COc1ccccc1CN[C@H]1CCCN[C@H]1c1ccccc1 [CP-99994, reference compound]
Ratio p.o./s.c. of ED50 for blockade of retching ([1]; ferrets): >16 | ED50 [1, 6]: > 10 mg/kg | ED50 [1, 7]: 0.63 mg/kg

Structure (SMILES): COc1ccccc1CN[C@H]1C2CCN(CC2)[C@H]1C(c1ccccc1)c1ccccc1 [CP-96345, reference compound]
ED50 ([1]; sc, 1 h, read-out: ED50 for blockade of loperamide-induced retching, s.c. route (−1 h)): > 10 mg/kg

The next lines start with results.

IC50 [2]: 1.26 nM | IC50 [3]: 631 nM
Structure (SMILES): Cc1nnsc1C(=O)N1CCC(N2CCN([C@H]3CCN(C(=O)c4cc(C(F)(F)F)cc(C(F)(F)F)c4)[C@H](Cc4ccccc4)C3)CC2)CC1 [Compound 142]

IC50 [2]: 1 nM
Structure (SMILES): O=C(C1CCC1)N1CCC(N2CCN([C@H]3CCN(C(=O)c4cc(C(F)(F)F)cc(C(F)(F)F)c4)[C@H](Cc4ccccc4)C3)CC2)CC1 [Compound 102]

IC50 [2]: 1 nM | IC50 [3]: 794 nM
Structure (SMILES): Cc1nnsc1C(=O)N1CCC(N2CCN([C@H]3CCN(C(=O)c4cc(C(F)(F)F)cc(C(F)(F)F)c4)[C@H](Cc4ccccc4)C3)CC2)CC1 [Compound 143]

IC50 [2]: 3.16 nM
Structure (SMILES): O=C(c1cncc(N2CCCC2)c1)N1CCC(N2CCN(C3CCN(C(=O)c4cc(C(F)(F)F)cc(C(F)(F)F)c4)C(Cc4ccccc4)C3)CC2)CC1 (stereo not shown) [Compound 85]

IC50 [2]: 1 nM | IC50 [3]: 794 nM
Structure (SMILES): Cc1nnsc1C(=O)N1CCC(N2CCN([C@H]3CCN(C(=O)c4cc(C(F)(F)F)cc(C(F)(F)F)c4)[C@H](Cc4ccccc4)C3)CC2)CC1 [Compound 77, (2-benzyl-4-{4-[1-(4-methyl-[1,2,3]thiadiazole-5-carbonyl)-piperidin-4-yl]-piperazin-1-yl}-piperidin-I -yl)-(3,5-bis-trifluoromethyl-phenyl)-methanone]
ratio of oral ED50 (at time of peak effect) over subcutaneous ED50 (obtained at 1 h) ([1]; ferrets): 1.1 | ED50 ([1]; ferrets, blockade (=0 retches), intravenous route, 1 h after administration, read-out: ED50 for blockade of loperamide-induced retching): 0.26 mg/kg | ED50 ([1]; ferrets, blockade (=0 retches), oral route, 1 h after administration, read-out: ED50 for blockade of loperamide-induced retching): 0.72 mg/kg | ED50 ([1]; ferrets, blockade (=0 retches), oral route, 2 h after administration, read-out: ED50 for blockade of loperamide-induced retching): 0.42 mg/kg | ED50 ([1]; ferrets, blockade (=0 retches), oral route, 4 h after administration, read-out: ED50 for blockade of loperamide-induced retching): 0.77 mg/kg | ED50 ([1]; ferrets, blockade (=0 retches), oral route, 8 h after administration, read-out: ED50 for blockade of loperamide-induced retching): 0.34 mg/kg | ED50 ([1]; ferrets, blockade (=0 retches), oral route, 16 h after administration, read-out: ED50 for blockade of loperamide-induced retching): 1.66 mg/kg | ED50 ([1]; ferrets, blockade (=0 retches), oral route, 32 h after administration, read-out: ED50 for blockade of loperamide-induced retching): > 2.5 mg/kg | ED50 ([1]; ferrets, inhibition (<20 retches), intravenous route, 1 h after administration, read-out: ED50 for inhibition of loperamide-induced retching): 0.15 mg/kg | ED50 ([1]; ferrets, inhibition (<20 retches), oral route, 1 h after administration, read-out: ED50 for inhibition of loperamide-induced retching): 0.31 mg/kg | ED50 ([1]; ferrets, inhibition (<20 retches), oral route, 2 h after administration, read-out: ED50 for inhibition of loperamide-induced retching): 0.08 mg/kg | ED50 ([1]; ferrets, inhibition (<20 retches), oral route, 4 h after administration, read-out: ED50 for inhibition of loperamide-induced retching): 0.26 mg/kg | ED50 ([1]; ferrets, inhibition (<20 retches), oral route, 8 h after administration, read-out: ED50 for inhibition of loperamide-induced retching): 0.29 mg/kg | ED50 ([1]; ferrets, inhibition (<20 retches), oral route, 16 h after administration, read-out: ED50 for inhibition of loperamide-induced retching): 0.73 mg/kg | ED50 ([1]; ferrets, inhibition (<20 retches), oral route, 32 h after administration, read-out: ED50 for inhibition of loperamide-induced retching): ~2.5 mg/kg | ED50 ([1]; ferrets, oral administration, time of peak effect, read-out: graphically estimated peak-effect ED50 for blockade of retching (=0 retches)): 0.34 mg/kg | duration of action ([1]; ferrets, oral, at 4 times the peak-effect dose): 16 h | Ratio p.o./s.c. of ED50 for blockade of retching ([1]; ferrets): 1.3 | ED50 ([1]; iv, read-out: ED50 for blockade of retching 1 h after i.v. injection, ferrets, i.v., 1 h): 0.26 mg/kg | ED50 ([1]; iv, read-out: ED50 for inhibition of retching 1 h after i.v. injection, ferrets, i.v., 1 h): 0.15 mg/kg | ED50 [1, 6]: 0.42 mg/kg | ED50 ([1]; read-out: graphically estimated peak-effect ED50 for inhibition of retching (<20 retches), ferrets, oral administration, time of peak effect): 0.16 mg/kg | ED50 [1, 7]: 0.32 mg/kg | ED50 ([1]; sc, ferrets, blockade (=0 retches), subcutaneous route, 1 h after administration, read-out: ED50 for blockade of loperamide-induced retching): 0.32 mg/kg | ED50 ([1]; sc, ferrets, inhibition (<20 retches), subcutaneous route, 1 h after administration, read-out: ED50 for inhibition of loperamide-induced retching): 0.18 mg/kg | ED50 ([1]; sc, ferrets, s.c., 1 h, <20 retches, read-out: ED50 for inhibition of retching one hour after s.c. injection): 0.18 mg/kg | ED50 ([1]; sc, ferrets, s.c., 1 h, =0 retches, read-out: ED50 for complete blockade of retching one hour after s.c. injection): 0.32 mg/kg

IC50 [2]: 0.794 nM | IC50 [3]: 398 nM
Structure (SMILES): Cc1nnsc1C(=O)N1CCC(N2CCN([C@H]3CCN(C(=O)c4cc(C(F)(F)F)cc(C(F)(F)F)c4)[C@H](Cc4ccccc4)C3)CC2)CC1 [Compound 78]
